Data on nine compounds can be found in PubChem BioAssay AID248 (DTP/NCI, 2004).

“And” between values parts separate entries of the source, which are not always exact repeats. Identical values can stand only once. Toxic doses and inconclusive results are not listed.

The assay deals with L1210 leukemia ip in BDF1 mice, survival T/C. As to the kind of experiment: NCI In Vivo Anticancer Drug Screen. Data for tumor model L1210 Leukemia (intraperitoneal) in B6D2F1 (BDF1) mice. The conditions noted are these: higher = longer survival. The method, boiled down: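 Tumor cells were implanted, animals were treated, and survival was followed. The result divides the treated measurement by the vehicle-control measurement.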

The mark [1] stands for this setting: endpoint: mean survival time, dose: 25.0 mg/kg/injection, schedule: Q01DX009 (ip), vehicle: saline.
The mark [2] stands for this setting: endpoint: mean survival time, dose: 100.0 mg/kg/injection, schedule: Q04DX003 (ip), vehicle: saline.
Where [3] appears, read: endpoint: mean survival time, dose: 100.0 mg/kg/injection, schedule: Q01DX009 (ip), vehicle: Klucel (hydroxypropylcellulose) (HPC).
[4] abbreviates: endpoint: mean survival time, dose: 200.0 mg/kg/injection, schedule: Q01DX009 (ip), vehicle: Klucel (hydroxypropylcellulose) (HPC).
Setting [5] is: endpoint: mean survival time, dose: 400.0 mg/kg/injection, schedule: Q01DX009 (ip), vehicle: Klucel (hydroxypropylcellulose) (HPC).

Consider `Cn1c(N)nc2nc[nH]c2c1=S`, for which the T/C (endpoint: mean survival time, dose: 0.25 mg/kg/injection, schedule: Q01DX Z (ip), vehicle: carboxymethylcellulose (CMC)) was 104 % of control; the T/C (endpoint: mean survival time, dose: 0.5 mg/kg/injection, schedule: Q01DX Z (ip), vehicle: carboxymethylcellulose (CMC)) was 101 % of control; the T/C (endpoint: mean survival time, dose: 1.0 mg/kg/injection, schedule: Q01DX Z (ip), vehicle: carboxymethylcellulose (CMC)) was 104 % of control; the T/C (endpoint: mean survival time, dose: 2.0 mg/kg/injection, schedule: Q01DX015 (ip), vehicle: carboxymethylcellulose (CMC)) is 103 % of control; the T/C (endpoint: mean survival time, dose: 2.0 mg/kg/injection, schedule: Q01DX Z (ip), vehicle: carboxymethylcellulose (CMC)) is 107 % of control; the T/C (endpoint: mean survival time, dose: 2.5 mg/kg/injection, schedule: Q01DX010 (ip), vehicle: saline) is 95 % of control and 91 % of control. Besides, the T/C is, setting by setting: (endpoint: mean survival time, dose: 2.7 mg/kg/injection, schedule: Q01DX Z (ip), vehicle: methylcellulose (MC)) 159 % of control; (endpoint: mean survival time, dose: 4.0 mg/kg/injection, schedule: Q01DX015 (ip), vehicle: carboxymethylcellulose (CMC)) 92 % of control; (endpoint: mean survival time, dose: 4.0 mg/kg/injection, schedule: Q01DX Z (ip), vehicle: carboxymethylcellulose (CMC)) 97 % of control and 106 % of control; (endpoint: mean survival time, dose: 4.0 mg/kg/injection, schedule: Q01DX Z (ip), vehicle: methylcellulose (MC)) 150 % of control; (endpoint: mean survival time, dose: 5.0 mg/kg/injection, schedule: Q01DX009 (ip), vehicle: saline) 101 % of control and 106 % of control; (endpoint: mean survival time, dose: 5.0 mg/kg/injection, schedule: Q01DX010 (ip), vehicle: saline) 97 % of control and 101 % of control. Further, the T/C runs as follows: (endpoint: mean survival time, dose: 6.0 mg/kg/injection, schedule: Q01DX Z (ip), vehicle: methylcellulose (MC)) 123 % of control; (endpoint: mean survival time, dose: 8.0 mg/kg/injection, schedule: Q01DX015 (ip), vehicle: carboxymethylcellulose (CMC)) 107 % of control; (endpoint: mean survival time, dose: 8.0 mg/kg/injection, schedule: Q01DX Z (ip), vehicle: carboxymethylcellulose (CMC)) 118 % of control; (endpoint: mean survival time, dose: 10.0 mg/kg/injection, schedule: Q01DX009 (ip), vehicle: saline) 101 % of control and 104 % of control; (endpoint: mean survival time, dose: 10.0 mg/kg/injection, schedule: Q01DX010 (ip), vehicle: saline) 100 % of control and 91 % of control; (endpoint: mean survival time, dose: 16.0 mg/kg/injection, schedule: Q01DX015 (ip), vehicle: carboxymethylcellulose (CMC)) 104 % of control and 116 % of control. In addition, the T/C by setting is: (endpoint: mean survival time, dose: 16.0 mg/kg/injection, schedule: Q01DX Z (ip), vehicle: carboxymethylcellulose (CMC)) 110 % of control; (endpoint: mean survival time, dose: 20.0 mg/kg/injection, schedule: Q01DX009 (ip), vehicle: saline) 106 % of control and 113 % of control; (endpoint: mean survival time, dose: 20.0 mg/kg/injection, schedule: Q01DX010 (ip), vehicle: saline) 94 % of control and 95 % of control and 116 % of control; (endpoint: mean survival time, dose: 32.0 mg/kg/injection, schedule: Q01DX015 (ip), vehicle: carboxymethylcellulose (CMC)) 123 % of control; (endpoint: mean survival time, dose: 40.0 mg/kg/injection, schedule: Q01DX009 (ip), vehicle: saline) 119 % of control; (endpoint: mean survival time, dose: 40.0 mg/kg/injection, schedule: Q01DX010 (ip), vehicle: saline) 97 % of control. The T/C is, setting by setting: (endpoint: mean survival time, dose: 64.0 mg/kg/injection, schedule: Q01DX010 (iv), vehicle: saline) 102 % of control; (endpoint: mean survival time, dose: 64.0 mg/kg/injection, schedule: Q01DX015 (ip), vehicle: carboxymethylcellulose (CMC)) 123 % of control; (endpoint: mean survival time, dose: 80.0 mg/kg/injection, schedule: Q01DX010 (ip), vehicle: saline) 97 % of control; (endpoint: mean survival time, dose: 128.0 mg/kg/injection, schedule: Q01DX010 (iv), vehicle: saline) 100 % of control; (endpoint: mean survival time, dose: 128.0 mg/kg/injection, schedule: Q01DX015 (ip), vehicle: carboxymethylcellulose (CMC)) 115 % of control; (endpoint: mean survival time, dose: 256.0 mg/kg/injection, schedule: Q01DX010 (iv), vehicle: saline) 108 % of control. In addition, the T/C is 105 % of control and 106 % of control (endpoint: median survival time, dose: 5.0 mg/kg/injection, schedule: Q01DX009 (ip), vehicle: saline); 110 % of control (endpoint: median survival time, dose: 10.0 mg/kg/injection, schedule: Q01DX009 (ip), vehicle: saline); 110 % of control and 112 % of control (endpoint: median survival time, dose: 20.0 mg/kg/injection, schedule: Q01DX009 (ip), vehicle: saline); 120 % of control (endpoint: median survival time, dose: 40.0 mg/kg/injection, schedule: Q01DX009 (ip), vehicle: saline).
For the compound `CCC(C)[Se][Se]C(C)CC` (configuration not stated), the T/C is, setting by setting: (endpoint: mean survival time, dose: 6.25 mg/kg/injection, schedule: Q01DX009 (ip), vehicle: saline) 94 % of control; (endpoint: mean survival time, dose: 6.25 mg/kg/injection, schedule: Q04DX003 (ip), vehicle: saline) 97 % of control; (endpoint: mean survival time, dose: 12.5 mg/kg/injection, schedule: Q01DX009 (ip), vehicle: saline) 98 % of control; (endpoint: mean survival time, dose: 12.5 mg/kg/injection, schedule: Q04DX003 (ip), vehicle: saline) 103 % of control; under setting [1], 91 % of control; (endpoint: mean survival time, dose: 25.0 mg/kg/injection, schedule: Q04DX003 (ip), vehicle: saline) 103 % of control. Also, the T/C under setting [2] is 89 % of control.
In the case of `F`, the T/C is, setting by setting: (endpoint: mean survival time, dose: 5.0 mg/kg/injection, schedule: Q01DX001 (ip), vehicle: saline) 89 % of control; (endpoint: mean survival time, dose: 10.0 mg/kg/injection, schedule: Q01DX001 (ip), vehicle: saline) 97 % of control; (endpoint: mean survival time, dose: 12.0 mg/kg/injection, schedule: Q01DX Z (ip), vehicle: saline) 98 % of control; (endpoint: mean survival time, dose: 20.0 mg/kg/injection, schedule: Q01DX001 (ip), vehicle: saline) 103 % of control; (endpoint: mean survival time, dose: 24.0 mg/kg/injection, schedule: Q01DX Z (ip), vehicle: saline) 101 % of control; (endpoint: mean survival time, dose: 40.0 mg/kg/injection, schedule: Q01DX001 (ip), vehicle: saline) 97 % of control. In addition, the T/C is, setting by setting: (endpoint: mean survival time, dose: 48.0 mg/kg/injection, schedule: Q01DX Z (ip), vehicle: saline) 110 % of control; (endpoint: mean survival time, dose: 62.0 mg/kg/injection, schedule: Q01DX Z (ip), vehicle: saline) 92 % of control; (endpoint: median survival time, dose: 5.0 mg/kg/injection, schedule: Q01DX009 (ip), vehicle: water) 93 % of control; (endpoint: median survival time, dose: 10.0 mg/kg/injection, schedule: Q01DX009 (ip), vehicle: water) 100 % of control; (endpoint: median survival time, dose: 20.0 mg/kg/injection, schedule: Q01DX009 (ip), vehicle: water) 106 % of control; (endpoint: median survival time, dose: 40.0 mg/kg/injection, schedule: Q01DX009 (ip), vehicle: water) 106 % of control.
For the compound `CNC(=S)N/N=C/c1cc(Cl)cc(Cl)c1`, the T/C is 102 % of control (endpoint: mean survival time, dose: 100.0 mg/kg/injection, schedule: Q01DX001 (ip), vehicle: other); 102 % of control (endpoint: mean survival time, dose: 200.0 mg/kg/injection, schedule: Q01DX001 (ip), vehicle: other); 98 % of control (endpoint: mean survival time, dose: 400.0 mg/kg/injection, schedule: Q01DX001 (ip), vehicle: other).
For `COc1ccc(C2(SCC(N)C(=O)O)c3ccccc3-c3ccccc32)cc1` (configuration not stated), the T/C runs as follows: under setting [1], 101 % of control; (endpoint: mean survival time, dose: 50.0 mg/kg/injection, schedule: Q01DX009 (ip), vehicle: saline) 98 % of control; (endpoint: mean survival time, dose: 100.0 mg/kg/injection, schedule: Q01DX009 (ip), vehicle: saline) 95 % of control; (endpoint: mean survival time, dose: 200.0 mg/kg/injection, schedule: Q01DX009 (ip), vehicle: saline) 93 % of control; (endpoint: mean survival time, dose: 300.0 mg/kg/injection, schedule: Q01DX009 (ip), vehicle: saline) 98 % of control; (endpoint: mean survival time, dose: 400.0 mg/kg/injection, schedule: Q01DX009 (ip), vehicle: saline) 102 % of control.
Regarding `CC(=O)Nc1cc(Cl)c(Cl)cc1N`, the T/C under setting [3] is 95 % of control, the T/C under setting [4] was 98 % of control and the T/C under setting [5] is 96 % of control.
With `O=c1[nH]c(=S)nc2nc[nH]n12`, the T/C under setting [2] is 97 % of control; the T/C (endpoint: mean survival time, dose: 200.0 mg/kg/injection, schedule: Q04DX003 (ip), vehicle: saline) was 102 % of control; the T/C (endpoint: mean survival time, dose: 400.0 mg/kg/injection, schedule: Q04DX003 (ip), vehicle: saline) is 105 % of control.
Regarding `CC(=O)Oc1cc(-c2c(C)cc(C)cc2C)c(OC(C)=O)cc1C`, the T/C is, setting by setting: under setting [3], 104 % of control; (endpoint: mean survival time, dose: 100.0 mg/kg/injection, schedule: Q04DX003 (ip), vehicle: Klucel (hydroxypropylcellulose) (HPC)) 94 % of control; under setting [4], 97 % of control; (endpoint: mean survival time, dose: 200.0 mg/kg/injection, schedule: Q04DX003 (ip), vehicle: Klucel (hydroxypropylcellulose) (HPC)) 90 % of control; under setting [5], 97 % of control; (endpoint: mean survival time, dose: 400.0 mg/kg/injection, schedule: Q04DX003 (ip), vehicle: Klucel (hydroxypropylcellulose) (HPC)) 95 % of control.
Regarding `CC(S)CNCCSC(=O)c1ccccc1` (configuration not stated), the T/C was 91 % of control (endpoint: mean survival time, dose: 100.0 mg/kg/injection, schedule: Q04DX003 (ip), vehicle: acetone); 102 % of control (endpoint: mean survival time, dose: 200.0 mg/kg/injection, schedule: Q04DX003 (ip), vehicle: acetone); 97 % of control (endpoint: mean survival time, dose: 400.0 mg/kg/injection, schedule: Q04DX003 (ip), vehicle: acetone).
